The target of assay [1] is T1, Dop (Mycolicibacterium smegmatis, UniProt A0QZ49).
T1 sequence (A0QZ49 1-498): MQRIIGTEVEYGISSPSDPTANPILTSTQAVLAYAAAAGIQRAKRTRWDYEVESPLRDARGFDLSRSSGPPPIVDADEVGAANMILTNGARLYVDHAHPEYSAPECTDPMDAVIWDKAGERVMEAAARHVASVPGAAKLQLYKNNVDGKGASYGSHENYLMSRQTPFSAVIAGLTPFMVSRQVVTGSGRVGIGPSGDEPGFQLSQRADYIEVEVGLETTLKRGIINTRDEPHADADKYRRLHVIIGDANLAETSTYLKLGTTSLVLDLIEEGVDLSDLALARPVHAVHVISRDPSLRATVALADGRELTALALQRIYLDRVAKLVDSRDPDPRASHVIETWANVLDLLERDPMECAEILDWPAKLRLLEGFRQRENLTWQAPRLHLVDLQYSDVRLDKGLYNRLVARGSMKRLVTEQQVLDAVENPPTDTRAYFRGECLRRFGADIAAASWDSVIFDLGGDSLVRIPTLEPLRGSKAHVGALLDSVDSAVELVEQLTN
The assay can be described thus: ATP competition assay / KM of ATP for Dop. It is filed as biochemical, M. smegmatis.

Assay [2] deals with T1, Dop. The assay can be described thus: biochemical. It is filed as biochemical, M. smegmatis.
In assay [3] the target is T1, Dop. Format: biochemical, M. smegmatis. To be noted: 100 μM inhibitor; 10 nM Dop; 250 nM FabD-Pup; 30 min.
Assay [4] has as its target T2, PafA (Mycobacterium tuberculosis, UniProt P9WNU7).
T2 sequence (P9WNU7 1-452): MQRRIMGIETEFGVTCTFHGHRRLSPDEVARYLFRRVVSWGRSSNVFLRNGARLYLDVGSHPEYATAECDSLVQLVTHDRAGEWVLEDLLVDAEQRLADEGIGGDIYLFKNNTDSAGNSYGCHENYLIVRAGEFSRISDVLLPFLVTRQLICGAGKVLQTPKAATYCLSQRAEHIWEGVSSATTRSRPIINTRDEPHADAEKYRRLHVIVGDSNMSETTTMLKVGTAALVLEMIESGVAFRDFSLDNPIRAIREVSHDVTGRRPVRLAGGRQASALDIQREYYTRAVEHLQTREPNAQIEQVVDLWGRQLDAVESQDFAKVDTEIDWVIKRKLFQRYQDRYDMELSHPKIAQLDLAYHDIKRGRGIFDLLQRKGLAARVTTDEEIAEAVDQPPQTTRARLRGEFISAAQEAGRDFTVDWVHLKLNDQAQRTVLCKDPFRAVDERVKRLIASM
Format: biochemical, Mtb. As to conditions: 100 μM inhibitor; 50 nM PafA; 2 hours.

The target of assay [5] is T2, PafA. It is filed as biochemical, Mtb. To be noted: 100 µM compound; 50 nM PafA; 2 hours.
Assay [6] addresses T2, PafA. Format: biochemical, Mtb. As to conditions: 100 µM inhibitor; 250 nM FabD; 50 nM PafA; six hours.
The target of assay [7] is T1, Dop. The assay can be described thus: Jump-dilution assay. It is filed as biochemical, M. smegmatis.

“Also recorded” adds a separate entry of the source.

Take `Nc1ncnc2c1ncn2[C@@H]1O[C@H](COP(=O)(O)OP(=O)(O)OP(=O)(O)O)[C@@H](O)[C@H]1O` [ATP]: on Dop [1] (read-out: KM of ATP for Dop, Michaelis-Menten curve of Dop vs. [ATP]), the Km (as a rule, the substrate concentration at which the rate is half of its maximum) is 320 ± 30 µM.
As for `COc1cc(/C=C(\C#N)C(=O)c2ccc(O)c(O)c2)cc(I)c1O` [Compound 1, I-OMe-Tyrphostin AG538], the concentration for half-maximal inhibition (IC50) (in general, the midpoint of a concentration-inhibition curve) at 10-fold increased Dop concentration (ratio test) on Dop [2] amounted to 0.70 ± 0.03 μM. For the same compound, the “IC50 at routine Dop concentration (ratio test)” value at Dop [2] (30 nM Dop) is 0.26 ± 0.06 µM. The “Inhibition of depupylation of FabD-Pup by Dop” value on Dop [3] is “incompletely inhibited”. Further, the “Inhibition of depupylation of FabD-Pup by PafA” value (“Inhibition … of FabD-Pup by PafA” below) on PafA [4] is on record as “partly inhibited”. Also, the “Inhibition of depupylation of Ino1-Pup by PafA” value (“Inhibition … of Ino1-Pup by PafA” for short) on PafA [5] was “partially inhibited”. In addition, the “Inhibition of pupylation of FabD by PafA (ligase activity)” value (“Inhibition of pupylation of FabD by PafA” for short) at PafA [6] is “partly inhibited”. The “Dop activity after 100-fold dilution (jump-dilution)” value at Dop [7] is reported as “Complete restoration of Dop activity”. Moreover, on Dop [1] (eight ATP concentrations, 0.1–6.4 mM), the “Change of IC50 with ATP concentration” value was “did not significantly increase”.
As for `N#C/C(=C\c1ccc(O)c(O)c1)C(=O)c1ccc(O)c(O)c1` [Compound 2, Tyrphostin AG538], the “Inhibition of depupylation of FabD-Pup by Dop” value on Dop [3] was “failed to inhibit; also recorded: did not inhibit; also recorded: leaving Dop activity intact”. In addition, the “Inhibition … of FabD-Pup by PafA” value on PafA [4] is “completely inhibited; also recorded: fully inhibits; also recorded: efficiently inhibit”. At PafA [5], the “Inhibition … of Ino1-Pup by PafA” value was “partially inhibited”. Further, the “Inhibition of pupylation of FabD by PafA” value on PafA [6] is reported as “completely inhibited; also recorded: fully inhibits; also recorded: efficiently inhibit”.
On to `COc1cc(/C=C(\C#N)C(=O)c2ccccc2)cc(I)c1O` [Compound 5a], for which the concentration for half-maximal inhibition (IC50) against Dop [2] was found to be 5.4 ± 0.5 µM.
Take `N#C/C(=C\c1ccccc1)C(=O)c1ccccc1` [Compound 5b]: on Dop [2], the IC50 was greater than 100 µM.
For the compound `COc1cc(/C=C(\C#N)C(=O)c2ccc(O)c(O)c2)ccc1O` [Compound 10a], on Dop [2], the IC50 was greater than 100 µM.
In turn, `COc1cc(/C=C(\C#N)C(=O)c2ccc(O)c(O)c2)cc([N+](=O)[O-])c1O` [Compound 10b] came in with a 50% inhibitory concentration (IC50) at Dop [2] of 4.1 ± 0.1 µM.
Compound `COc1cc(/C=C(\C#N)C(=O)c2ccc(O)c(O)c2)cc(Br)c1O` [Compound 10i] returned a 50% inhibitory concentration (IC50) against Dop [2] of 2.7 ± 0.2 µM. For the same compound, the “Inhibition … of FabD-Pup by PafA” value on PafA [4] is “partly inhibited”. In addition, on PafA [6], the “Inhibition of pupylation of FabD by PafA” value was “partly inhibited”.
Turning to `N#C/C(=C\c1cc(O)c(O)c(I)c1)C(=O)c1ccc(O)c(O)c1` [Compound 10k], the half-maximal inhibitory concentration (IC50) on Dop [2] was determined as 0.29 ± 0.01 µM. Besides, the “Inhibition … of FabD-Pup by PafA” value on PafA [4] is on record as “completely inhibited”. The “Inhibition … of Ino1-Pup by PafA” value at PafA [5] was “fully inhibited”. In addition, the “Inhibition of pupylation of FabD by PafA” value on PafA [6] is given as “completely inhibited”.
Take `COc1cc(/C=C/C(=O)c2ccccc2)cc(I)c1O` [Compound 12]: on Dop [2], the concentration for half-maximal inhibition (IC50) came to 29 µM. Besides, the “Decrease in potency compared to 1” value on Dop [2] (ratio of IC50 values vs compound 1) is on record as 60 fold.
For the compound `COc1cc(/C=C(\C#N)C(O)c2ccccc2)cc(I)c1O` (stereo not shown) [Compound 13], on Dop [2], the 50% inhibitory concentration (IC50) amounted to 57 µM.
As to `COc1cc(CC(C#N)C(O)c2ccccc2)cc(I)c1O` (stereo not shown) [Compound 14], the “Dop inhibition in the fluorogenic assay (in words)” value on Dop [2] (Pup(33–63)-Glu(AMC) substrate, highest conc. 100 µM) is given as “complete loss of activity”.
